Laboratory results taken from US11286228B2, “Stilbene derivative and method for preparing same” (Ozchela Inc., priority 2016, dated 2022).
Read-outs that look alike come from different tables or passages of the source.

Tests used:
cyclophilin = assay: Cis-trans isomerase inhibitory activity (chymotrypsin-coupled Suc-AAPF-pNA cleavage, absorbance 390 nm); format: biochemical; details: cyclophilin, chymotrypsin, Suc-AAPF-pNA; read-out: Test Example 1: cis-trans isomerase inhibitory activity (IC50)
From the text: Chymotrypsin cleaves a trans-type alanine-proline peptide bond. When Suc-AAPF-pNA (a peptide substrate) and chymotrypsin are mixed, the trans-type peptide substrate is cleaved and the cis-type peptide substrate remains. The remaining cis-type peptide substrate is converted into a trans form by a cis-trans isomerase and is then cleaved again by chymotrypsin. When the cis-trans isomerase is present, chymotrypsin is able to cleave a larger amount of trans-type peptide substrate within a predetermined period of time, from which the activity of the cis-trans isomerase may be determined. The amount of the cleaved trans-type peptide substrate is measured using absorbance at 390 nm. Cyclophilin has cis-trans isomerase activity, and accelerates the cleavage of trans-type peptide substrate by chymotrypsin. When the stilbene derivatives of the present invention were treated together with cyclophilin, the cleavage of the peptide substrate by chymotrypsin was not observed to accelerate. Thereby, the stilbene derivatives of the invention can be concluded to inhibit the activity of cyclophilin.

hepatitis C virus = assay: Antiviral activity in HCV replicon cells (Renilla luciferase); format: cell-based; details: read-out: Test Example 3: antiviral activity (EC50)
Experimental: The antiviral activity of the stilbene derivatives on hepatitis C virus was measured. The replicon cells that stably replicate the hepatitis C virus genome were attached to a culture plate and cultured in a CO2 incubator at 37° C. for 24 hr. The replicon cells cultured for one day were washed with a PBS solution, treated with the compounds of the present invention, and then cultured for 72 hr. The stilbene derivative-treated replicon cells were washed with a cold PBS solution and added with 20 μL of a cell lysis solution so that the cells were lysed in ice for 20 min. 100 μL of a Renilla luciferase substrate was added thereto, after which the luminescence thereof was measured and thus the amount of the hepatitis C virus genome was estimated. The amount of the hepatitis C virus genome in the stilbene derivative-treated replicon cells according to the present invention relative to the amount of the hepatitis C virus genome in dimethylsulfoxide (DMSO)-treated replicon cells is shown.
Compounds 1 to 155 of Tables 1 to 10 may be grouped as follows based on the antiviral activity (EC50) values: […]

[1] = system: mitochondria obtained from hepatocytes; assay: Inhibitory activity on calcium-induced mitochondrial swelling (absorbance 520 nm); details: calcium-induced swelling of extracted mitochondria, read-out: Test Example 4: inhibiting mitochondrial swelling (IC50)
From the text: Cyclophilin is a key protein for forming permeability transition pores (PTP) in mitochondria. When permeability transition pores are formed, mitochondria swell, whereby the outer membrane thereof ruptures and thus cell death progresses. Such mitochondrial dysfunction causes many diseases including neurodegenerative diseases, cancer, and the like. Cyclosporine, a known cyclophilin inhibitor, is capable of preventing the formation of permeability transition pores to thus suppress mitochondrial swelling.
The mitochondrial swelling test was performed as follows. Specifically, the hepatocytes were disrupted using a Dounce tissue grinder. The disrupted cells were centrifuged at 700×g for 10 min and the supernatant was transferred into a new tube. The supernatant was centrifuged at 12,000×g for 15 min, thereby obtaining mitochondria.
When the extracted mitochondria were added with calcium, they swelled, which may be observed by measuring the absorbance at 520 nm. The stilbene derivatives are effective at inhibiting mitochondrial swelling due to calcium.
The activity of Compounds 1 to 155 of Tables 1 to 10 on inhibiting mitochondrial swelling may be determined based on IC50 values, and may be grouped as follows: […]

[2] = Hepatitis C virus, HCV replicon cells, 72 hr, Renilla luciferase, relative to DMSO

## CC(C)(Cc1ccc(C(C#N)=Cc2ccccc2C(=O)O)cc1)CC1CC1 [Compound 63]
cyclophilin
  IC50: 20 to 200 nM
Hepatitis C virus; [2]
  EC50: 500 to 5000 nM
[1]; Hepatocyte
  IC50: 5000 to 50000 nM

## CCCCOC(=O)c1ccccc1C=Cc1ccc(CC(C)(C)C)cc1C [Compound 67]
cyclophilin
  IC50: 20 to 200 nM
Hepatitis C virus; [2]
  EC50: 500 to 5000 nM
[1]; Hepatocyte
  IC50: 5000 to 50000 nM

## CCCCOC(=O)c1ccccc1C=Cc1ccc(CC(C)(C)C)cc1CC [Compound 68]
cyclophilin
  IC50: 20 to 200 nM
Hepatitis C virus; [2]
  EC50: 500 to 5000 nM
[1]; Hepatocyte
  IC50: 5000 to 50000 nM

## CCCCOC(=O)c1cc(C)ccc1C=Cc1ccc(CC(C)(C)C)cc1 [Compound 69]
cyclophilin
  IC50: 20 to 200 nM
Hepatitis C virus; [2]
  EC50: 500 to 5000 nM
[1]; Hepatocyte
  IC50: 5000 to 50000 nM

## CCCCOC(=O)c1c(C=Cc2ccc(CC(C)(C)C)cc2)ccc(C)c1C [Compound 70]
cyclophilin
  IC50: 20 to 200 nM
Hepatitis C virus; [2]
  EC50: 500 to 5000 nM
[1]; Hepatocyte
  IC50: 5000 to 50000 nM

## CCCOC(=O)c1ccccc1C=Cc1ccc(CC(C)(C)C)cc1 [Compound 71]
cyclophilin
  IC50: ≤ 20 nM
Hepatitis C virus; [2]
  EC50: < 500 nM
[1]; Hepatocyte
  IC50: < 5000 nM

## CCCCCOC(=O)c1ccccc1C=Cc1ccc(CC(C)(C)C)cc1 [Compound 72]
cyclophilin
  IC50: ≤ 20 nM
Hepatitis C virus; HCV replicon cells, 72 hr, Renilla luciferase, relative to DMSO
  EC50: < 500 nM
[1]
  IC50: < 5000 nM

## CC(C)OC(=O)c1ccccc1C=Cc1ccc(CC(C)(C)C)cc1 [Compound 73]
cyclophilin
  IC50: ≤ 20 nM
Hepatitis C virus; [2]
  EC50: < 500 nM
[1]; Hepatocyte
  IC50: < 5000 nM

## CC(C)(C)Cc1ccc(C=Cc2ccccc2C(=O)OCC2CCCCC2)cc1 [Compound 74]
cyclophilin
  IC50: ≤ 20 nM
Hepatitis C virus; [2]
  EC50: < 500 nM
[1]; Hepatocyte
  IC50: < 5000 nM

## CC(C)(C)Cc1ccc(C=Cc2ccccc2C(=O)OCC2CCCCN2)cc1 (stereo not drawn) [Compound 75]
cyclophilin
  IC50: 20 to 200 nM
Hepatitis C virus; [2]
  EC50: 500 to 5000 nM
[1]; Hepatocyte
  IC50: 5000 to 50000 nM

## CC(C)(C)Cc1ccc(C=Cc2ccccc2C(=O)OCc2ccccc2)cc1 [Compound 76]
cyclophilin
  IC50: ≤ 20 nM
Hepatitis C virus; [2]
  EC50: < 500 nM
[1]; Hepatocyte
  IC50: < 5000 nM

## CC(C)(C)Cc1ccc(C=Cc2ccccc2C(=O)OC2CCCCC2)cc1 [Compound 77]
cyclophilin
  IC50: 20 to 200 nM
Hepatitis C virus; [2]
  EC50: 500 to 5000 nM
[1]; Hepatocyte
  IC50: 5000 to 50000 nM

## CCCCOC(=O)c1ccccc1C=Cc1ccc(CC(C)CC)cc1 (stereo not drawn) [Compound 78]
cyclophilin
  IC50: 20 to 200 nM
Hepatitis C virus; [2]
  EC50: 500 to 5000 nM
[1]; Hepatocyte
  IC50: 5000 to 50000 nM

## CCCCOC(=O)c1ccccc1C=Cc1ccc(CC2CCCC2)cc1 [Compound 79]
cyclophilin
  IC50: 20 to 200 nM
Hepatitis C virus; [2]
  EC50: 500 to 5000 nM
[1]; Hepatocyte
  IC50: 5000 to 50000 nM

## CCCCOC(=O)c1ccccc1C=Cc1ccc(Cc2ccccc2)cc1 [Compound 81]
cyclophilin
  IC50: 20 to 200 nM
Hepatitis C virus; Hepatitis C virus, 72 h
  EC50: 500 to 5000 nM
[1]; Hepatocyte
  IC50: 5000 to 50000 nM

## CCCCOC(=O)c1ccccc1C=C(C)c1ccc(CC(C)(C)C)cc1 [Compound 82]
cyclophilin
  IC50: 20 to 200 nM
Hepatitis C virus; [2]
  EC50: 500 to 5000 nM
[1]; Hepatocyte
  IC50: 5000 to 50000 nM

## CCCCOC(=O)c1c(C)cccc1C=C(C)c1ccc(CC(C)(C)C)cc1 [Compound 83]
cyclophilin
  IC50: 20 to 200 nM
Hepatitis C virus; [2]
  EC50: 500 to 5000 nM
[1]; Hepatocyte
  IC50: 5000 to 50000 nM

## CCCCOC(=O)c1ccccc1C=C(C)c1ccc(CC(C)(C)C)cc1C [Compound 84]
cyclophilin
  IC50: 20 to 200 nM
Hepatitis C virus; [2]
  EC50: 500 to 5000 nM
[1]; Hepatocyte
  IC50: 5000 to 50000 nM

## CCCCOC(=O)c1cc(C)ccc1C=C(C)c1ccc(CC(C)(C)C)cc1 [Compound 85]
cyclophilin
  IC50: 20 to 200 nM
Hepatitis C virus; [2]
  EC50: 500 to 5000 nM
[1]; Hepatocyte
  IC50: 5000 to 50000 nM

## CCCCOC(=O)c1c(C=C(C)c2ccc(CC(C)(C)C)cc2)ccc(C)c1C [Compound 86]
cyclophilin
  IC50: 20 to 200 nM
Hepatitis C virus; [2]
  EC50: 500 to 5000 nM
[1]; Hepatocyte
  IC50: 5000 to 50000 nM

## CCCOC(=O)c1ccccc1C=C(C)c1ccc(CC(C)(C)C)cc1 [Compound 87]
cyclophilin
  IC50: 20 to 200 nM
Hepatitis C virus; [2]
  EC50: 500 to 5000 nM
[1]; Hepatocyte
  IC50: 5000 to 50000 nM

## CCCCCOC(=O)c1ccccc1C=C(C)c1ccc(CC(C)(C)C)cc1 [Compound 88]
cyclophilin
  IC50: 20 to 200 nM
Hepatitis C virus; [2]
  EC50: 500 to 5000 nM
[1]; Hepatocyte
  IC50: 5000 to 50000 nM

## CC(=Cc1ccccc1C(=O)OC(C)C)c1ccc(CC(C)(C)C)cc1 [Compound 89]
cyclophilin
  IC50: 20 to 200 nM
Hepatitis C virus; [2]
  EC50: 500 to 5000 nM
[1]; Hepatocyte
  IC50: 5000 to 50000 nM

## CC(=Cc1ccccc1C(=O)OCC1CCCCC1)c1ccc(CC(C)(C)C)cc1 [Compound 90]
cyclophilin
  IC50: 20 to 200 nM
Hepatitis C virus; [2]
  EC50: 500 to 5000 nM
[1]; Hepatocyte
  IC50: 5000 to 50000 nM

## CC(=Cc1ccccc1C(=O)OCC1CCCCN1)c1ccc(CC(C)(C)C)cc1 (stereo not drawn) [Compound 91]
cyclophilin
  IC50: 20 to 200 nM
Hepatitis C virus; [2]
  EC50: 500 to 5000 nM
[1]; Hepatocyte
  IC50: 5000 to 50000 nM

## CC(=Cc1ccccc1C(=O)OCc1ccccc1)c1ccc(CC(C)(C)C)cc1 [Compound 92]
cyclophilin
  IC50: 20 to 200 nM
Hepatitis C virus; [2]
  EC50: 500 to 5000 nM
[1]; Hepatocyte
  IC50: 5000 to 50000 nM

## CC(=Cc1ccccc1C(=O)OC1CCCCC1)c1ccc(CC(C)(C)C)cc1 [Compound 93]
cyclophilin
  IC50: 20 to 200 nM
Hepatitis C virus; [2]
  EC50: 500 to 5000 nM
[1]; Hepatocyte
  IC50: 5000 to 50000 nM

## CCCCOC(=O)c1ccccc1C=C(C)c1ccc(CC(C)CC)cc1 (stereo not drawn) [Compound 94]
cyclophilin
  IC50: 20 to 200 nM
Hepatitis C virus; [2]
  EC50: 500 to 5000 nM
[1]; Hepatocyte
  IC50: 5000 to 50000 nM

## CCCCOC(=O)c1ccccc1C=C(C)c1ccc(CC2CCCC2)cc1 [Compound 95]
cyclophilin
  IC50: 20 to 200 nM
Hepatitis C virus; [2]
  EC50: 500 to 5000 nM
[1]; Hepatocyte
  IC50: 5000 to 50000 nM

## CCCCOC(=O)c1ccccc1C=C(C)c1ccc(CC2CCCCC2)cc1 [Compound 96]
cyclophilin
  IC50: 20 to 200 nM
Hepatitis C virus; [2]
  EC50: 500 to 5000 nM
[1]; Hepatocyte
  IC50: 5000 to 50000 nM

## CCCCOC(=O)c1ccccc1C=C(C)c1ccc(Cc2ccccc2)cc1 [Compound 97]
cyclophilin
  IC50: 20 to 200 nM
Hepatitis C virus; Hepatitis C virus, 72 h
  EC50: 500 to 5000 nM
[1]; Hepatocyte
  IC50: 5000 to 50000 nM

## CCCCOC(=O)c1ccccc1C=C(N)c1ccc(CC(C)(C)C)cc1 [Compound 98]
cyclophilin
  IC50: 20 to 200 nM
Hepatitis C virus; [2]
  EC50: 500 to 5000 nM
[1]; Hepatocyte
  IC50: 5000 to 50000 nM

## CCCCOC(=O)c1c(C)cccc1C=C(N)c1ccc(CC(C)(C)C)cc1 [Compound 99]
cyclophilin
  IC50: 20 to 200 nM
Hepatitis C virus; [2]
  EC50: 500 to 5000 nM
[1]; Hepatocyte
  IC50: 5000 to 50000 nM

## CCCCOC(=O)c1ccccc1C=C(N)c1ccc(CC(C)(C)C)cc1C [Compound 100]
cyclophilin
  IC50: 20 to 200 nM
Hepatitis C virus; [2]
  EC50: 500 to 5000 nM
[1]; Hepatocyte
  IC50: 5000 to 50000 nM

## CCCCOC(=O)c1cc(C)ccc1C=C(N)c1ccc(CC(C)(C)C)cc1 [Compound 101]
cyclophilin
  IC50: 20 to 200 nM
Hepatitis C virus; [2]
  EC50: 500 to 5000 nM
[1]; Hepatocyte
  IC50: 5000 to 50000 nM

## CCCCOC(=O)c1c(C=C(N)c2ccc(CC(C)(C)C)cc2)ccc(C)c1C [Compound 102]
cyclophilin
  IC50: 20 to 200 nM
Hepatitis C virus; [2]
  EC50: 500 to 5000 nM
[1]; Hepatocyte
  IC50: 5000 to 50000 nM

## CCCCCOC(=O)c1ccccc1C=C(N)c1ccc(CC(C)(C)C)cc1 [Compound 103]
cyclophilin
  IC50: 20 to 200 nM
Hepatitis C virus; [2]
  EC50: 500 to 5000 nM
[1]; Hepatocyte
  IC50: 5000 to 50000 nM

## CC(C)OC(=O)c1ccccc1C=C(N)c1ccc(CC(C)(C)C)cc1 [Compound 104]
cyclophilin
  IC50: 20 to 200 nM
Hepatitis C virus; [2]
  EC50: 500 to 5000 nM
[1]; Hepatocyte
  IC50: 5000 to 50000 nM

## CC(C)(C)Cc1ccc(C(N)=Cc2ccccc2C(=O)OCC2CCCCC2)cc1 [Compound 105]
cyclophilin
  IC50: 20 to 200 nM
Hepatitis C virus; [2]
  EC50: 500 to 5000 nM
[1]; Hepatocyte
  IC50: 5000 to 50000 nM
